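Assay format: 96-well plates, 48-hour exposure. Abbreviation: GI50, concentration required for 50% inhibition of growth.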 Activity calls are given as the source filed them. No stated cut-off is given here; in the data, active = GI50 up to about 1.1 µM and inactive = higher.
Tests used:
Assay in all cases: NCI tumour cell line growth inhibition, 48 h
UO-31 = tested on: UO-31
SF-268 = tested on: SF-268
SNB-19 = tested on: SNB-19
NCI-H522 = tested on: NCI-H522
SW-620 = tested on: SW-620
SK-MEL-5 = tested on: SK-MEL-5
U-251 = tested on: U-251
MDA-MB-435 = tested on: MDA-MB-435
CAKI-1 = tested on: CAKI-1
MDA-N = tested on: MDA-N
HT-29 = tested on: HT-29
Hs-578T = tested on: Hs-578T
TK-10 = tested on: TK-10
CCRF-CEM = tested on: CCRF-CEM
KM12 = tested on: KM12
RXF 393 = tested on: RXF 393
SR = tested on: SR
UACC-62 = tested on: UACC-62
DU-145 = tested on: DU-145
A498 = tested on: A498
COLO 205 = tested on: COLO 205
ACHN = tested on: ACHN
OVCAR-4 = tested on: OVCAR-4
PC-3 = tested on: PC-3
SN12C = tested on: SN12C
SK-MEL-28 = tested on: SK-MEL-28
SNB-75 = tested on: SNB-75
M14 = tested on: M14
HOP-92 = tested on: HOP-92
HCT-15 = tested on: HCT-15
NCI-H460 = tested on: NCI-H460
T47D = tested on: T47D
NCI-H23 = tested on: NCI-H23
A549 = tested on: A549
HCT-116 = tested on: HCT-116
SF-295 = tested on: SF-295
K562 = tested on: K562
HL-60 = tested on: HL-60
MOLT-4 = tested on: MOLT-4
Malme-3M = tested on: Malme-3M
NCI-H226 = tested on: NCI-H226
NCI/ADR-RES = tested on: NCI/ADR-RES
IGROV-1 = tested on: IGROV-1
LOX IMVI = tested on: LOX IMVI
HCC 2998 = tested on: HCC 2998
SK-MEL-2 = tested on: SK-MEL-2
MDA-MB-231 = tested on: MDA-MB-231
RPMI-8226 = tested on: RPMI-8226
SF-539 = tested on: SF-539
OVCAR-3 = tested on: OVCAR-3
786-0 = tested on: 786-0
EKVX = tested on: EKVX
SK-OV-3 = tested on: SK-OV-3
HOP-62 = tested on: HOP-62
OVCAR-5 = tested on: OVCAR-5
MCF7 = tested on: MCF7
BT-549 = tested on: BT-549
UACC-257 = tested on: UACC-257
OVCAR-8 = tested on: OVCAR-8

CCC(C)(C)/C(CC(O)(C(F)(F)F)C(F)(F)F)=N\O
GI50 (UO-31): > 100 µM (inactive) | GI50 (SF-268): > 100 µM (inactive) | GI50 (SNB-19): > 100 µM (inactive) | GI50 (NCI-H522): > 100 µM (inactive) | GI50 (SW-620): > 100 µM (inactive) | GI50 (SK-MEL-5): > 100 µM (inactive) | GI50 (U-251): > 100 µM (inactive) | GI50 (MDA-MB-435): > 100 µM (inactive) | GI50 (CAKI-1): > 100 µM (inactive) | GI50 (MDA-N): > 100 µM (inactive) | GI50 (HT-29): > 100 µM (inactive) | GI50 (Hs-578T): > 100 µM (inactive) | GI50 (TK-10): > 100 µM (inactive) | GI50 (CCRF-CEM): > 100 µM (inactive) | GI50 (KM12): > 100 µM (inactive) | GI50 (RXF 393): > 100 µM (inactive) | GI50 (SR): > 100 µM (inactive) | GI50 (UACC-62): > 100 µM (inactive) | GI50 (DU-145): > 100 µM (inactive) | GI50 (A498): > 100 µM (inactive) | GI50 (COLO 205): > 100 µM (inactive) | GI50 (ACHN): > 100 µM (inactive) | GI50 (OVCAR-4): > 100 µM (inactive) | GI50 (PC-3): > 100 µM (inactive) | GI50 (SN12C): > 100 µM (inactive) | GI50 (SK-MEL-28): > 100 µM (inactive) | GI50 (SNB-75): > 100 µM (inactive) | GI50 (M14): > 100 µM (inactive) | GI50 (HOP-92): > 100 µM (inactive) | GI50 (HCT-15): > 100 µM | GI50 (NCI-H460): > 100 µM (inactive) | GI50 (T47D): > 100 µM (inactive) | GI50 (NCI-H23): > 100 µM (inactive) | GI50 (A549): > 100 µM (inactive) | GI50 (HCT-116): > 100 µM (inactive) | GI50 (SF-295): > 100 µM (inactive) | GI50 (K562): > 100 µM (inactive) | GI50 (HL-60): > 100 µM (inactive) | GI50 (MOLT-4): > 100 µM (inactive) | GI50 (Malme-3M): > 100 µM (inactive) | GI50 (NCI-H226): > 100 µM (inactive) | GI50 (NCI/ADR-RES): > 100 µM (inactive) | GI50 (IGROV-1): > 100 µM (inactive) | GI50 (LOX IMVI): > 100 µM (inactive) | GI50 (HCC 2998): > 100 µM (inactive) | GI50 (SK-MEL-2): > 100 µM (inactive) | GI50 (MDA-MB-231): > 100 µM (inactive) | GI50 (RPMI-8226): > 100 µM (inactive) | GI50 (SF-539): > 100 µM (inactive) | GI50 (OVCAR-3): > 100 µM (inactive) | GI50 (786-0): > 100 µM (inactive) | GI50 (EKVX): > 100 µM (inactive) | GI50 (SK-OV-3): > 100 µM (inactive) | GI50 (HOP-62): > 100 µM (inactive) | GI50 (OVCAR-5): > 100 µM (inactive)

CC(C)(C)OC(=O)[C@@H]1ON2O[C@H](OC3CCCC3(c3ccccc3)c3ccccc3)C[C@H]3OC(=O)[C@@H]1[C@H]32 (stereo partly specified)
GI50 (UO-31): 71.9 µM (inactive) | GI50 (SF-268): 34.4 µM (inactive) | GI50 (SNB-19): > 100 µM (inactive) | GI50 (NCI-H522): 32.2 µM (inactive) | GI50 (SW-620): 85.7 µM (inactive) | GI50 (SK-MEL-5): 41.6 µM (inactive) | GI50 (U-251): > 100 µM (inactive) | GI50 (MDA-MB-435): 57.9 µM (inactive) | GI50 (CAKI-1): 53.5 µM (inactive) | GI50 (MDA-N): 61.7 µM (inactive) | GI50 (HT-29): 38.8 µM (inactive) | GI50 (TK-10): > 100 µM (inactive) | GI50 (CCRF-CEM): > 100 µM (inactive) | GI50 (KM12): 36.1 µM (inactive) | GI50 (RXF 393): 25.7 µM (inactive) | GI50 (SR): > 100 µM (inactive) | GI50 (MCF7): 70 µM (inactive) | GI50 (UACC-62): 98.9 µM (inactive) | GI50 (DU-145): 81.8 µM (inactive) | GI50 (COLO 205): 37.3 µM (inactive) | GI50 (ACHN): > 100 µM (inactive) | GI50 (OVCAR-4): 14.9 µM (inactive) | GI50 (PC-3): 26.8 µM (inactive) | GI50 (BT-549): 66.7 µM (inactive) | GI50 (SN12C): 58.5 µM (inactive) | GI50 (SK-MEL-28): 95.1 µM (inactive) | GI50 (SNB-75): 25.8 µM (inactive) | GI50 (M14): 40.6 µM (inactive) | GI50 (HCT-15): 31.8 µM | GI50 (NCI-H460): 54.3 µM (inactive) | GI50 (T47D): 54 µM (inactive) | GI50 (NCI-H23): 46.5 µM (inactive) | GI50 (A549): 83.2 µM (inactive) | GI50 (HCT-116): 32 µM (inactive) | GI50 (UACC-257): 71.3 µM (inactive) | GI50 (SF-295): > 100 µM (inactive) | GI50 (K562): 36.4 µM (inactive) | GI50 (MOLT-4): > 10 µM (inactive) | GI50 (NCI-H226): 36.9 µM (inactive) | GI50 (NCI/ADR-RES): 33.9 µM (inactive) | GI50 (IGROV-1): 38.7 µM (inactive) | GI50 (LOX IMVI): 31.4 µM (inactive) | GI50 (SK-MEL-2): 14.8 µM (inactive) | GI50 (MDA-MB-231): > 100 µM (inactive) | GI50 (SF-539): > 100 µM (inactive) | GI50 (OVCAR-3): 16.1 µM (inactive) | GI50 (786-0): 50.1 µM (inactive) | GI50 (EKVX): 73.5 µM (inactive) | GI50 (SK-OV-3): > 100 µM (inactive) | GI50 (HOP-62): 61.1 µM (inactive) | GI50 (OVCAR-5): > 100 µM (inactive)

CCN(CC)CCN(C(=O)c1ccc(F)cc1)c1ccccc1N
GI50 (UO-31): > 10 µM (inactive) | GI50 (SF-268): > 10 µM (inactive) | GI50 (SNB-19): > 10 µM (inactive) | GI50 (NCI-H522): > 10 µM (inactive) | GI50 (SW-620): > 10 µM (inactive) | GI50 (SK-MEL-5): > 10 µM (inactive) | GI50 (U-251): > 10 µM (inactive) | GI50 (MDA-MB-435): > 10 µM (inactive) | GI50 (CAKI-1): > 10 µM (inactive) | GI50 (MDA-N): > 10 µM (inactive) | GI50 (HT-29): > 10 µM (inactive) | GI50 (Hs-578T): > 10 µM (inactive) | GI50 (TK-10): > 10 µM (inactive) | GI50 (CCRF-CEM): > 10 µM (inactive) | GI50 (KM12): > 10 µM (inactive) | GI50 (RXF 393): > 10 µM (inactive) | GI50 (SR): > 10 µM (inactive) | GI50 (MCF7): > 10 µM (inactive) | GI50 (UACC-62): > 10 µM (inactive) | GI50 (DU-145): > 10 µM (inactive) | GI50 (A498): > 10 µM (inactive) | GI50 (COLO 205): > 10 µM (inactive) | GI50 (ACHN): > 10 µM (inactive) | GI50 (OVCAR-4): > 10 µM (inactive) | GI50 (PC-3): > 10 µM (inactive) | GI50 (SN12C): > 10 µM (inactive) | GI50 (SK-MEL-28): > 10 µM (inactive) | GI50 (SNB-75): > 10 µM (inactive) | GI50 (M14): > 10 µM (inactive) | GI50 (HCT-15): > 10 µM | GI50 (NCI-H460): > 10 µM (inactive) | GI50 (T47D): > 10 µM (inactive) | GI50 (NCI-H23): > 10 µM (inactive) | GI50 (A549): > 10 µM (inactive) | GI50 (HCT-116): > 10 µM (inactive) | GI50 (SF-295): > 10 µM (inactive) | GI50 (K562): > 10 µM (inactive) | GI50 (OVCAR-8): > 10 µM (inactive) | GI50 (HL-60): > 10 µM (inactive) | GI50 (MOLT-4): > 10 µM (inactive) | GI50 (Malme-3M): > 10 µM (inactive) | GI50 (NCI-H226): 3.72 µM (inactive) | GI50 (NCI/ADR-RES): > 10 µM (inactive) | GI50 (IGROV-1): > 10 µM (inactive) | GI50 (LOX IMVI): > 10 µM (inactive) | GI50 (HCC 2998): > 10 µM (inactive) | GI50 (SK-MEL-2): > 10 µM (inactive) | GI50 (MDA-MB-231): > 10 µM (inactive) | GI50 (RPMI-8226): > 10 µM (inactive) | GI50 (SF-539): > 10 µM (inactive) | GI50 (OVCAR-3): > 10 µM (inactive) | GI50 (EKVX): > 10 µM (inactive) | GI50 (SK-OV-3): > 10 µM (inactive) | GI50 (HOP-62): > 10 µM (inactive) | GI50 (OVCAR-5): > 10 µM (inactive)

— ChEMBL document CHEMBL1201862, “PubChem BioAssay data set” (2004)
